# Source: patent US20020028938A1, “Prostaglandin endoperoxide H synthase biosynthesis inhibitors” (priority 1997, published 2002)
# Tests used:
# [1] = molecular target: T1, recombinant human Cox-2 (r-hu Cox-2) (Homo sapiens, UniProt P35354); assay: Recombinant human PGHS-2 enzyme assay (RHUCX2); type: biochemical; conditions: for IC50: read-out: RHUCX2 IC50 (parenthetical value)
# T1 construct: made in house; host or cells: baculovirus/Sf9 insect cells (microsomes)
# T1 sequence (P35354 18-604): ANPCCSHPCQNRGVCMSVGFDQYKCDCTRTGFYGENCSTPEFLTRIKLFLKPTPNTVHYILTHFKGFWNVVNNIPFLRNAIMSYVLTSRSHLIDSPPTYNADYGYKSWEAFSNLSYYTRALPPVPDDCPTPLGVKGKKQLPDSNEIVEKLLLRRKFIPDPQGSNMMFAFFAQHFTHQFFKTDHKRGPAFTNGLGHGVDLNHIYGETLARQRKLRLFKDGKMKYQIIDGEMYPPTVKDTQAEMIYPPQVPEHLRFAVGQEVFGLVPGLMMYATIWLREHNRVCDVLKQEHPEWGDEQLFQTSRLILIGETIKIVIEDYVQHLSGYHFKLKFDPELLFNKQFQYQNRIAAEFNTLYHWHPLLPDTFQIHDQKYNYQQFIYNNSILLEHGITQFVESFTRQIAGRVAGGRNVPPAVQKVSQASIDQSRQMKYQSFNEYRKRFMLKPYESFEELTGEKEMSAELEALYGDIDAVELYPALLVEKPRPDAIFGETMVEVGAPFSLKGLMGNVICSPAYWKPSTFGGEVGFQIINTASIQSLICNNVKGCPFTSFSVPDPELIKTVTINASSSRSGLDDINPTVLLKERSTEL
# In short: (§1)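 Recombinant enzyme reaction ran 2.5 minutes at room temperature, then was quenched with HCl and neutralized with NaOH. PGE2 formed with and without drug was quantified by EIA against standards in the same milieu. Percent inhibition versus control mean; IC50 by linear regression.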
# [2] = molecular target: T2, recombinant human Cox-1 (r-hu Cox1) (Homo sapiens, UniProt P23219); assay: Recombinant human PGHS-1 enzyme assay (RHUCX1); type: biochemical; conditions: for inhibition at 100 µM / inhibition at 10 µM: read-out: RHUCX1 % Inh. at Dose; for IC50: read-out: RHUCX1 IC50 (parenthetical value)
# T2 construct: made in house; host or cells: baculovirus/Sf9 insect cells (microsomes)
# T2 sequence (P23219 24-599): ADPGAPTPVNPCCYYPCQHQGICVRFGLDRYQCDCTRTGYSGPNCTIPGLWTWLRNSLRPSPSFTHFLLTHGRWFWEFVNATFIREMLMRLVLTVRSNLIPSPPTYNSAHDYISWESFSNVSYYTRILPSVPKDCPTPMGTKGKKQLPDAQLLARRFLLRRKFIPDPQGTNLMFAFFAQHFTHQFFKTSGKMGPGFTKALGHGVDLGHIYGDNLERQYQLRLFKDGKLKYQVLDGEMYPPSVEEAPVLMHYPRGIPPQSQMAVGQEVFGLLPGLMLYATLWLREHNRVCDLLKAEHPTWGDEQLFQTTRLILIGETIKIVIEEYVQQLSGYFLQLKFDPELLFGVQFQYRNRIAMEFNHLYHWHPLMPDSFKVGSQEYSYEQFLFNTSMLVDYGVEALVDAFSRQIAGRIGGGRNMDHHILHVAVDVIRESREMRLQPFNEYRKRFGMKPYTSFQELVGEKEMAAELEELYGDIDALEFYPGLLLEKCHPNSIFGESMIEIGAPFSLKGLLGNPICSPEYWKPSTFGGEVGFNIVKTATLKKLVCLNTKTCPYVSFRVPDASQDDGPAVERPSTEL
# In short: as §1
# [3] = molecular target: T3, Cox-1 in Monocyte U937 cells (Homo sapiens, UniProt P23219); assay: Monocyte U937 cell Cox-1 assay; type: cell-based
# T3 construct: endogenous in cells; host or cells: U937 monocyte cells (ATCC)
# T3 sequence (P23219 24-599): as above
# Description: Human amnionic WISH cells were grown to 80% confluence in 48 well plates. Following removal of the growth medium and two washings with Geys Balanced Salt Solutn, 5 ng IL-1β /ml (UBI, Lake Placid, N.Y.) was added to the cells with or without test compound in DMSO (0.01% v/v) in Neuman-Tytell Serumless Medium (GIBCO, Grand Island, N.Y.). Following an 18 hour incubation to allow for the maximal induction of PGHS-2, the conditioned medium was removed and assayed for PGE2 content by EIA analysis as described above.
# Monocyte U937 (ATCC, Rockville, Md.) cells were grown in a similar fashion to the WISH cells. After incubation, the conditioned medium was removed and assayed for […] by EIA analysis as described above.
# [4] = molecular target: T4, human amnionic whole cell cyclooxygenase-2 (WISH cells) (Homo sapiens, UniProt P35354); assay: IL-1β induced PGE2 production in WISH cells; type: cell-based; conditions: read-out: Wish IC50 (parenthetical value)
# T4 construct: endogenous in cells; host or cells: human amnionic WISH cells, induced with IL-1beta
# T4 sequence (P35354 18-604): T1 sequence (P35354 18-604)
# In short: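 Confluent (80%) WISH cells were stimulated with 5 ng/ml IL-1β in serum-free Neuman-Tytell medium, with or without test compound in DMSO (0.01% v/v). PGE2 in the culture medium was measured by EIA against standards prepared in the same medium, read by optical density.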
# [5] = molecular target: T5, Human Whole Platelet Cyclooxygenase-1 (Homo sapiens, UniProt P23219); assay: Human Whole Platelet Cyclooxygenase-1 assay (HWPX); type: cell-based; conditions: read-out: HWPX IC50 (parenthetical value)
# T5 construct: from tissue; host or cells: human blood: isolated platelets (A4) or heparinised whole blood (A9)
# T5 sequence (P23219 24-599): as above
# In short: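 Washed platelets from healthy-donor ACD blood were pre-incubated with compound for 10 min, then stimulated with calcium ionophore A23187 (8.8 μM final) for 10 min. Reaction stopped with cold 6 mM EDTA; thromboxane in supernatants quantified with a commercial kit.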
# [6] = tested on: prostaglandin biosynthesis in vivo (pleural lavage eicosanoids); assay: Rat carrageenan pleural inflammation (CIP) model; conditions: 4 h, 10 mpk oral, read-out: CIP % Inhib. @ 10 mpk
# Description: For oral administration, test compounds were suspended on the day of use in 100% polyethyleneglycol (PEG 400) with a motorized homogenizer equipped with a Teflon-coated pestle (TRI-R Instrument, Jamaica, N.Y.).
# To compare the mean responses of the treatment groups, analysis of variance was applied. Percent inhibition values were determined by comparing the individual treatment mean values to the mean of the control group. Linear regression was used to estimate IC50's/ED50's in appropriate assays.
# Pleural inflammation was induced in male adrenalectomized Sprague-Dawley rats following the method of Vinegar et al., Fed. Proc. 1976, 35, 2447-2456. Animals were orally dosed with experimental compounds, 30 minutes prior to the intrapleural injection of 2% lambda carrageenan (Sigma Chemical Co., St. Louis Mo.). Four hours later the animals were euthanized and the pleural cavities lavaged with ice cold saline. The lavage fluid was then added to two volumes of ice cold methanol (final methanol concentration 66%) to lyse cells and precipitate protein. Eicosanoids were determined by EIA as described above.
# [7] = tested on: air pouch prostaglandin biosynthesis (Cox-2); assay: Carrageenan induced air pouch prostaglandin biosynthesis model (CAP); type: in vivo, rat; conditions: for inhibition in vivo at 3 mg/kg: 4 h, 3 mpk, rat, read-out: CAP % Inhib. @ 3 mpk; for ED50: Rattus norvegicus
# In short: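 Male Sprague Dawley rats with dorsal air pouches (20 mL air day 0, 10 mL day 3) received 0.2% lambda carrageenan in saline into the pouch on day 7. Compounds dosed at 0.1 to 10 mg/kg 30 min before carrageenan; pouch lavaged 4 h later, prostaglandins measured by EIA. Percent inhibition versus control mean; ED50 by linear regression.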
# [8] = tested on: carrageenan induced paw edema; assay: Carrageenan induced paw edema (CPE) in rats; type: in vivo; conditions: rat; for inhibition in vivo at 10 mg/kg: 10 mpk oral, 3 hours after carrageenan, read-out: CPE % Inhib. @ 10 mpk
# In short: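 Male Sprague-Dawley rats (170–190 g) dosed orally in PEG 400, 1 h before subplantar 0.1 ml 1% lambda carrageenan in right hindpaw. Plethysmographic paw volume at 0 and 3 h; edema as difference, % inhibition versus control mean (±SEM), Dunnett's test, ED50 by linear regression.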
# [9] = Pharmacokinetic profile (plasma concentration, half life, AUC); type: in vivo, Rat; conditions: for half-life: Rat IV (3mg/kg); for AUC / concentration at 14 day: rat; for concentration at 14 day: oral, based on 10 mg/kg dosage, read-out: 14 day plasma micromolar concentration
# Human whole blood Cox-1 = molecular target: T6, Human whole blood Cox-1 (Homo sapiens, UniProt P23219); assay: Human whole blood assay Cyclooxygenase-1; type: cell-based
# T6 construct: from tissue; host or cells: human blood: isolated platelets (A4) or heparinised whole blood (A9)
# T6 sequence (P23219 24-599): as above
# Description: Heparin anticoagulated blood was incubated with drugs dissolved in DMSO. The samples are incubated at 37 degrees Celsius for 4.5 hours after which calcium ionophore at a final concentration of 30 μM was added and the mixture allowed to incubate for 30 minutes. The reaction was stopped with the addition of EGTA and cold methanol (50% final concentration). After 18 hours at −70 degrees Celsius, the plates were centrifuged and supernatants analyzed for TXB2.
# Human whole blood Cox-2 = molecular target: T7, Human whole blood Cox-2 (Homo sapiens, UniProt P35354); assay: Human whole blood assay Cyclooxygenase-2; type: cell-based
# T7 construct: from tissue; host or cells: heparinised human whole blood stimulated with E. coli LPS
# T7 sequence (P35354 18-604): T1 sequence (P35354 18-604)
# Description: Heparin anticoagulated blood was incubated with drugs dissolved in DMSO. The samples are incubated at 37 degrees Celsius for 15 minutes. E. coli lipopolysaccaride (LPS) 5 μg/ml dded and the samples incubated for 5 hours. The reaction was stopped with the addition of EGTA and cold methanol (50% final concentration). After 18 hours at −70 degree Celsius, the plates were centrifuged and supernatants analyzed for TXB2.
melting point [°C],inhibition at 100 µM [2] [%],IC50 [4] [nM],Compound,IC50 [5] [nM],inhibition in vivo at 10 mg/kg [6] [%],IC50 [1] [nM],inhibition in vivo at 3 mg/kg [7] [%],inhibition in vivo at 10 mg/kg [8] [%],ED50 [7] [mg/kg],also measured
153 to 154,10,1,CS(=O)(=O)c1ccc(-c2cnn(Cc3ccc(F)cc3)c(=O)c2-c2ccc(F)cc2)cc1 [Example 20],–,–,–,–,–,–,"inhibition at 0.01 µM ([1]; 0.01 μM, read-out: RHUCX2 % Inh. at Dose): 9%; inhibition at 0.1 µM ([1]; 0.1 μM, read-out: RHUCX2 % Inh. at Dose): 86%; inhibition at 1 µM ([3]; U-937, 1 μM, read-out: U937 % Inhib. at Dose): 33%"
155 to 157,2,15,"CS(=O)(=O)c1ccc(-c2cnn(-c3ccc(F)c(Cl)c3)c(=O)c2-c2ccc(F)cc2)cc1 [Example 187, 2-(3-Chloro-4-fluorophenyl)-4-(4-fluorophenyl)-5-[4-(methylsulfonyl)phenyl]-3(2H)-pyridazinone]",12600,51,94,30,28,–,–
102 to 110,–,30,CS(=O)(=O)c1ccc(-c2cnn(-c3ccc(Cl)c(F)c3)c(=O)c2-c2ccc(F)cc2)cc1 [Example 190],9960,60,134,71,28,–,IC50 [2]: 1880 nM
177 to 181,27,26,NS(=O)(=O)c1ccc(-c2cnn(-c3ccc(F)c(F)c3)c(=O)c2-c2ccc(F)cc2)cc1 [Example 400],300,65,142,82.5,41,–,–

# More lines, now with the values behind:
Compound,melting point [°C],inhibition at 100 µM [2] [%],IC50 [4] [nM],IC50 [5] [nM],inhibition in vivo at 10 mg/kg [6] [%],IC50 [1] [nM],inhibition in vivo at 3 mg/kg [7] [%],inhibition in vivo at 10 mg/kg [8] [%],ED50 [7] [mg/kg],also measured
"CC(C)=CCn1ncc(-c2ccc(S(C)(=O)=O)cc2)c(-c2ccc(F)cc2)c1=O [Example 24, 2-(3-Methyl-2-butenyl)-4-(4-fluorophenyl)-5-[4-(methylsulfonyl)phenyl]-3(2H)-pyridazinone]",169 to 172,60,–,–,–,–,–,–,–,inhibition at 10 µM [2]: 0%; IC50 ([3]; read-out: U937 IC50 (parenthetical value)): 190 nM
"CC(C)CCOc1c(-c2ccc(S(C)(=O)=O)cc2)cnn(-c2ccc(F)cc2)c1=O [Example 375, 2-(4-Fluorophenyl)-4-(3-methylbutoxy)-5-[4-(methylsulfonyl)phenyl]-3(2H)-pyridazinone]",117 to 120,46,89,2040,–,180,77.5,47,0.57,inhibition at 10 µM [2]: 31%; half-life [9]: 2.9 h; AUC [9]: 1.8 µM·h; concentration at 14 day [9]: 0 µM
"CC(C)(O)CCOc1c(-c2ccc(S(C)(=O)=O)cc2)cnn(-c2ccc(F)cc2)c1=O [Example 451, 2-(4-Fluorophenyl)-4-(3-hydroxy-3-methyl-1-butoxy)-5-[4-(methylsulfonyl)phenyl]-3(2H)-pyridazinone]",133 to 134,10,150,22400,–,470,80.5,–,0.7,IC50 (Human whole blood Cox-1): 29100 nM; IC50 (Human whole blood Cox-2): 470 nM; half-life [9]: 5.2 h; AUC [9]: 69 µM·h; concentration at 14 day [9]: 3.43 µM; CPE ED30 ([8]; oral): ED30 = 0.82
"CC(C)(O)CCOc1c(-c2ccc(S(C)(=O)=O)cc2)cnn(-c2ccc(F)c(F)c2)c1=O [Example 471, 2-(3,4-Difluorophenyl)-4-(3-hydroxy-3-methyl-1-butoxy)-5-[4-(methylsulfonyl)phenyl]-3(2H)-pyridazinone]",131 to 133,–,40,320,–,490,–,41,0.9,IC50 [2]: 3680 nM; inhibition at 30 µM (Human whole blood Cox-1; 30 micromolar): 55.5%; inhibition at 0.03 µM (Human whole blood Cox-2; 0.03 micromolar): 85%
